According to article PMC4140803 (PLoS ONE, 2014):
Where two headings read alike, the source gives them in different places.

Assays:
C8166 cells = assay type: cell-based, human
Method: (§1) Cytotoxicity was assayed by MTT colorimetric reduction as previously described, [18]. Briefly, a serial concentration of FNC was added to a 96-well plate, followed by 100 µl 4×10^4 C8166 cells (5×10^5 cells for PBMC). After incubation at 37°C, 5% CO2 for 3 days (7 days for PBMCs), 20 µl MTT was added each well. After incubation for 4 hours, 100 µl supernatant was removed and 100 µl 20%SDS-50%DMF was added. The plate was incubated at 37°C overnight. The optical absorbance was measured by ELISA reader (ELx800, Bio-Tek, VT, USA) at 570 nm and 630 nm, and 50% cytotoxicity concentration (CC50) was calculated. 3TC and AZT were used as control.

PBMC = assay type: cell-based, human
Method: C8166 cells were kindly donated by the Medical Research Council (MRC), the AIDS Reagent Project, U.K, and were maintained in RPMI-1640 with 10% FBS in humidified incubator with 5% CO2 at 37°C [16]. Peripheral blood mononuclear cells (PBMCs) were isolated from healthy donors by Ficoll-Hypaque density gradient centrifugation as described by the manufacturer’s instructions (Ethical Approval Number: SWYX-2011016). PBMCs were stimulated with 10% FBS, 5 µg/ml PHA and 50 U/ml IL-2 for three days before experiments.
as §1

HIV-1RF = test: Anti-HIV activity in vitro, C8166; assay type: cell-based; settings: Human immunodeficiency virus 1, subtype B
Method: (§2) C8166 cells were infected with different HIV-1 or HIV-2 laboratory strains and resistant strains at different serial concentration compounds with multiplicity of infection (MOI) of 0.075∼0.6. PHA-stimulated PBMCs were incubated with different clinical strains in RPMI-1640 (with 10% FBS, 50 U/ml IL-2 and 2 µg/ml polybrene) at MOI of 0.1. After infection at 37°C in 5% CO2 for 2 hours, C8166 cells were washed three times to remove free viruses and re-suspended by RPMI-1640 (with 10% FBS). 100 µl 4×10^4 cells (5×10^5 cells for PBMC) were seeded each well in a 96-well plate with gradient concentration of FNC. The plate was placed in a humidified incubator at 37°C, 5% CO2. 3TC and AZT were used as control. After incubation of 3–7 days, the percentage inhibition of syncytia formation was scored or the level of p24 was measured by ELISA [19] and 50% effective concentration (EC50) were calculated.

HIV-1_74V = test: Anti-HIV activity in vitro, C8166; assay type: cell-based; settings: Human immunodeficiency virus 1, subtype B, NRTI-resistant
Method: as §2

HIV-2CBL-20 = test: Anti-HIV activity in vitro, C8166; assay type: cell-based; settings: Human immunodeficiency virus 2; C8166, HIV-2CBL-20, subtype A
Method: as §2

HIV-2ROD = test: Anti-HIV activity in vitro, C8166; assay type: cell-based; settings: Human immunodeficiency virus 2, subtype A
Method: as §2

[1] = test system: HIV-1L10R/M46I/L63P/V82T/I84V; test: microbe, parasite or virus in culture; assay type: cell-based; settings: Human immunodeficiency virus 1, C8166, read-out: EC50s
[2] = test system: pNL4-3 gp41 (36G) V38A/N42T; assay type: cell-based, HIV-1; settings: C8166, pNL4-3 gp41 (36G) V38A/N42T, subtype B, FI-resistant
HIV-1KM018 = test: Anti-HIV activity in vitro, PBMC; assay type: cell-based; settings: for EC50: read-out: EC50s
Method: as §2

HIV-1TC-1 = test: Anti-HIV activity in vitro, PBMC; assay type: cell-based; settings: Human immunodeficiency virus 1, HIV-1TC-1, CRF01AE, clinical strain
Method: as §2

HIV-1WAN T69N = test: microbe, parasite or virus in culture; assay type: cell-based; settings: for EC50: Human immunodeficiency virus 1, PBMC, HIV-1WAN T69N, CRF01AE, clinical strain
Wild type HIV-1IIIB = test: Anti-HIV activity / phenotypic analysis in C8166; assay type: cell-based; settings: for EC50: Human immunodeficiency virus 1, C8166, wild type HIV-1IIIB; for FC, fold change, the ratio of EC50(Mut)/EC50(WT): wild type HIV-1IIIB (reference)
FNCP-21 HIV-1 IIIB = test: Phenotypic analysis of resistant variants in C8166; assay type: cell-based; settings: for FC, fold change, the ratio of EC50(Mut)/EC50(WT): FNCP-21 HIV-1 IIIB vs wild type HIV-1IIIB; for EC50: Human immunodeficiency virus 1, C8166, FNC-selected HIV-1IIIB at P-21
3TCP-21 HIV-1IIIB = test: Phenotypic analysis of resistant variants in C8166; assay type: cell-based; settings: for FC, fold change, the ratio of EC50(Mut)/EC50(WT): 3TCP-21 HIV-1IIIB vs wild type HIV-1IIIB; for EC50: Human immunodeficiency virus 1, C8166, 3TC-selected HIV-1IIIB at P-21
HIV-1IIIB [3] = test: Selection of drug-resistant HIV-1 variants and genotypic resistance assay; assay type: cell-based
HIV-1 [4] = test: Anti-HIV activity in vitro, summary over HIV-1 strains; assay type: cell-based; settings: Human immunodeficiency virus 1
Method: as §2

HIV-2 = test: Anti-HIV activity in vitro, summary over HIV-2 strains; assay type: cell-based; settings: Human immunodeficiency virus 2; range over HIV-2 strains; read-out: EC50s on HIV-2
Method: as §2

HIV-1 [5] = test: Activity assay with 50% human serum in C8166; assay type: cell-based; settings: C8166, 50% human serum, data not shown
HIV-1IIIB [6] = test: Quantification of HIV-1 DNA species by real-time quantitative PCR; settings: HIV-1IIIB infected C8166, 2 nM FNC or 2 µM 3TC
[7] = Human immunodeficiency virus 1, PBMC, HIV-1KM018, B/C recombinant, clinical strain

SMILES: [N-]=[N+]=N[C@]1(CO)O[C@@H](n2ccc(N)nc2=O)[C@@H](F)[C@@H]1O [FNC, 2′-deoxy-2′-β-fluoro-4′-azidocytidine]
- CC50s (C8166 cells; C8166 cells, MTT, 3 days): 2380 ± 50 µM
- CC50s (PBMC; PBMC, MTT, 7 days): 3.07 ± 0.23 µM
- EC50 (HIV-1RF): 0.03 ± 0.02 nM
- EC50 (HIV-1_74V): 0.00011 ± 1e-05 µM
- EC50 (HIV-2CBL-20): 0.025 ± 0.002 nM
- EC50 (HIV-2ROD): 0.018 ± 0.006 nM
- EC50 [1]: 0.00014 ± 1e-05 µM
- EC50 [2]: 0.00036 ± 3e-05 µM
- EC50 (HIV-1KM018; [7]): 0.00692 ± 0.00059 µM
- suppressive effects fold stronger than 3TC (HIV-1KM018; clinical strains in PBMC, first value of the sentence): 49 fold
- EC50 (HIV-1TC-1): 0.00034 ± 4e-05 µM
- EC50 (HIV-1WAN T69N): 0.00045 ± 9e-05 µM
- suppressive effects fold stronger than 3TC (HIV-1WAN T69N; clinical strains in PBMC, second value of the sentence): 192 fold
- EC50 (Wild type HIV-1IIIB): 0.00011 ± 2e-05 µM
- FC, fold change, the ratio of EC50(Mut)/EC50(WT) (Wild type HIV-1IIIB): 1
- FC, fold change, the ratio of EC50(Mut)/EC50(WT) (FNCP-21 HIV-1 IIIB): 735
- EC50 (FNCP-21 HIV-1 IIIB): 0.0808 ± 0.00814 µM
- FC, fold change, the ratio of EC50(Mut)/EC50(WT) (3TCP-21 HIV-1IIIB): 232
- EC50 (3TCP-21 HIV-1IIIB): 0.0255 ± 0.00186 µM
- inhibition at 0.0005 µM (HIV-1IIIB [3]; Human immunodeficiency virus 1, HIV-1IIIB infected C8166, 500 pM FNC): > 99%
- EC50 (HIV-1 [4]; range over HIV-1 strains, read-out: EC50s on HIV-1): 0.03 to 6.92 nM
- EC50 (HIV-1 [4]; wild-type HIV-1IIIB and HIV-1RF, read-out: 50% effective concentration values (EC50)): 0.03 to 0.11 nM
- EC50 (HIV-2): 0.018 to 0.025 nM
- EC50s against HIV-1 in presence of human serum (HIV-1 [5]): unaffected
- levels of ssDNA (strong-stop minus-strand DNA) (HIV-1IIIB [6]; 1 h, 2 h and 4 h post-infection): significantly reduced
- late RT level (full-length double-stranded DNA) (HIV-1IIIB [6]; 4 h, 6 h and 8 h post-infection, P<0.01): significantly reduced

SMILES: Nc1ccn([C@@H]2CS[C@H](CO)O2)c(=O)n1 [3TC, lamivudine, reference compound]
- CC50s (C8166 cells; C8166 cells, MTT, 3 days): 930 ± 190 µM
- CC50s (PBMC; PBMC, MTT, 7 days): 825.98 ± 30.52 µM
- EC50 (HIV-1RF): 350 ± 206 nM
- EC50 (HIV-1_74V): 0.243 ± 0.0101 µM
- EC50 (HIV-2CBL-20): 319 ± 29.8 nM
- EC50 (HIV-2ROD): 257 ± 43.6 nM
- EC50 [1]: 0.416 ± 0.0118 µM
- EC50 [2]: 0.386 ± 0.0362 µM
- EC50 (HIV-1KM018; [7]): 0.34 ± 0.0122 µM
- EC50 (HIV-1TC-1): 0.0517 ± 0.00308 µM
- EC50 (HIV-1WAN T69N): 0.0865 ± 0.011 µM
- EC50 (Wild type HIV-1IIIB): 0.202 ± 0.0341 µM
- EC50 (FNCP-21 HIV-1 IIIB): 124 µM
- EC50 (3TCP-21 HIV-1IIIB): 690 µM
- inhibition at 1 µM (HIV-1IIIB [3]; Human immunodeficiency virus 1, C8166): > 99%

SMILES: Cc1cn([C@H]2C[C@H](N=[N+]=[N-])[C@@H](CO)O2)c(=O)[nH]c1=O [AZT, zidovudine]
- CC50s (C8166 cells; human): 5090 ± 260 µM
- CC50s (PBMC; human): 845.31 ± 66.23 µM
- EC50 (HIV-1KM018; Human immunodeficiency virus 1, PBMC): 0.478 ± 0.0455 µM
- EC50 (Wild type HIV-1IIIB): 0.00939 ± 0.00122 µM
- FC, fold change, the ratio of EC50(Mut)/EC50(WT) (Wild type HIV-1IIIB): 1
- FC, fold change, the ratio of EC50(Mut)/EC50(WT) (FNCP-21 HIV-1 IIIB): 1.31
- EC50 (FNCP-21 HIV-1 IIIB): 0.0123 ± 0.00024 µM
- FC, fold change, the ratio of EC50(Mut)/EC50(WT) (3TCP-21 HIV-1IIIB): 1.40
- EC50 (3TCP-21 HIV-1IIIB): 0.0131 ± 0.00243 µM
